Data reported in patent US20130012527A1, “PREQ1 RIBOSWITCHES AND METHODS AND COMPOSITIONS FOR USE OF AND WITH PREQ1 RIBOSWITCHES” (YALE UNIVERSITY, priority 2007, published 2013).

Tests used:
106 queC RNA = assay: Equilibrium dialysis, competition with 3H-guanine; format: binding, B. subtilis; settings: 100 nM 3H-guanine, 20 μM RNA, unlabeled compound at a concentration exceeding that of the RNA
Excerpt: To provide additional support for a specific physical interaction between preQ1 and the queC RNA motif, competitive binding experiments were done using an equilibrium dialysis apparatus containing two chambers separated by a permeable membrane with a molecular weight cut-off of 5000 Daltons (FIG. 4d). Because guanine is recognized by the queC motif with nanomolar affinity (FIG. 4c), we first added ^3H-guanine and a molar excess of 106 queC RNA individually to the respective chambers. […].
Samples containing either 100 nM ^3H-guanine or 20 μM 106 queC RNA, each prepared in the same buffer solution used for in-line probing, were added in 30 μL volumes to opposite chambers of a DispoEquilibrium Dialyzer (ED-1, Harvard Bioscience). Following equilibration at 25° C. for 10-15 h, aliquots of 5 μL were withdrawn and quantitated with a liquid scintillation counter. For competitive binding experiments, 3 μL of buffer containing 1 mM unlabeled test compound was subsequently delivered to the RNA-containing chamber, while the same volume of buffer was added to the opposite chamber. After another equilibration period, 5 μL aliquots were again removed to assess the distribution of ^3H-guanine.

wild-type 80 queC RNA = assay: In-line probing analysis of wild-type 80 queC RNA; format: binding, B. subtilis; settings: for structure modulation: wild-type 80 queC, 200 μM
Excerpt: This possibility was examined by comparing the ligand binding characteristics of a wild-type queC construct (80 queC) with those of two mutant RNAs in which absolutely conserved cytidine residues were individually replaced with uridines (FIG. 6a). 2,6-diaminopurine was included in the panel of test compounds since it was previously established that the 2-amino group was critical for ligand recognition by the preQ1 aptamer (FIG. 4c). It was therefore anticipated that compounds lacking this moiety, such as adenine or 7-aminomethyl-7-deazaadenine, might not bind detectably, despite their potential for base pairing with a uridyl discriminator residue.
(§1) In-line probing analysis. […] .

[1] = target: 52 queC RNA (B. subtilis queC element); assay: In-line probing analysis of 52 queC RNA; format: binding; settings: in-line probing over a range of ligand concentrations, read-out: Kd (apparent)
Experimental: RNA construct 52 queC (FIG. 4a) was used to examine the degree of ligand selectivity of the B. subtilis queC element. Affinities for various purine compounds were determined by subjecting 5′ ^32P-labeled 52 queC to in-line probing analyses using a range of ligand concentrations, followed by the quantitative analysis of the levels of ligand-dependent structure modulation.
A more detailed understanding of the molecular contacts involved in ligand recognition by 52 queC was obtained by determining the apparent Kd values for a series of purine analogs (FIG. 4c).

[2] = system: M1 RNA (80 queC, cytidine 34 replaced with uridine); assay: In-line probing analysis of 80 queC mutant M1; format: binding, B. subtilis; settings: for structure modulation: 200 μM
[3] = system: queC RNA construct containing the analogous C34U mutation; assay: In-line probing of a queC RNA construct with the analogous C34U mutation; format: binding; settings: concentrations as high as 1 mM
Excerpt: as §1

Nc1nc2nc[nH]c2c(=O)[nH]1 [guanine]
competition with 3H-guanine sequestration in the RNA chamber (106 queC RNA): competitively reversed
structure modulation (wild-type 80 queC RNA): structure modulation occurs
Kd [1]: ~500 nM

Nc1nc(N)c2[nH]cnc2n1 [2,6-diaminopurine]
relative loss in binding affinity ([2]; C34U mutant with 2,6-diaminopurine versus wild-type queC RNA with guanine): more than 600 fold
structure modulation ([2]; M1 (C34U)): key changes are observed
Kd ([2]; M1 (C34U), data not shown): > 300000 nM
Kd (wild-type 80 queC RNA; 80 queC): > 300000 nM
lowest concentration at which alterations in structure are detected (wild-type 80 queC RNA; 80 queC): 10 µM
structure modulation (wild-type 80 queC RNA): Structural changes in this construct are also induced

NCC1C=Nc2ncnc(N)c21 (stereo not shown) [7-aminomethyl-7-deazaadenine]
modulation of RNA structure [3]: fail to modulate the structure

N#CC1C=Nc2nc(N)[nH]c(=O)c21 (stereo not shown) [preQ0, 7-cyano-7-deazaguanine]
Kd [1]: ~100 nM

Nc1nc2c(c(=O)[nH]1)CC=N2 [7-deazaguanine]
competition with 3H-guanine sequestration in the RNA chamber (106 queC RNA): competitively reversed

Nc1ncnc2nc[nH]c12 [adenine]
structure modulation ([2]; M1 (C34U)): failure of adenine to induce any conformational response
binding to M1 RNA ([2]; M1 (C34U), in words): absence of adenine binding
competition with 3H-guanine sequestration in the RNA chamber (106 queC RNA): did not serve as a competitor
structure modulation (wild-type 80 queC RNA): does not result in structure modulation
